Converted amounts (≈) assume the structure as drawn. Where two headings read alike, the source gives them in different places.
How the values were obtained:
S. aureus CCARM 3126 = test: microbe, parasite or virus in culture; conditions: drug-resistant strain, 2 × 10^5 CFU/ml, 24 h at 37° C, average of 3–4 independent experiments
From the text: (§1) Escherichia coli (KCTC 1682), Salmonella typhimurium (KCTC 1926), Pseudomonas aeruginosa (KCTC 1637), Staphylococcus aureus (KCTC 1621), Bacillus subtilis (KCTC 1918), and Listeria monocytogenes (KCTC 3710) were obtained from the Korean Collection for Type Cultures (KCTC). Drug-resistant E. coli strains (CCARM 1229 and CCARM 1238), S. typhimurium strains (CCARM 8007, CCARM 8009, and CCARM 8013), and S. aureus strains (CCARM 3089, CCARM 3090, CCARM 3108, CCARM 3114, and CCARM 3126) were from the Culture Collection of Antibiotic-Resistant Microbes (CCARM) at Seoul Women’s University, Korea.
(§2) The antibacterial activities of the peptides against Gram-negative, Gram-positive and antibiotic-resistant bacterial strains were evaluated using the microbroth dilution method (Park et al. [2003]). Aliquots of culture medium containing bacterial suspensions in mid-logarithmic phase at a concentration of 2 × 10^5 colony forming units (CFU)/ml were added to each well of a multiwell plate containing peptide solution serially diluted 2× in 10 mM sodium phosphate buffer (pH 7.2) or phosphate-buffered saline (PBS, 1.5 mM KH2PO4, 2.7 mM KCl, 8.1 mM Na2HPO4, 150 mM NaCl, pH 7.2). Growth inhibition was evaluated by measuring the absorbance at 620 nm using a Versa-Max microplate Elisa Reader (Molecular Devices Co., Sunnyvale, CA, USA) after 24 h of incubation at 37° C.

S. aureus CCARM 3090 = test: microbe, parasite or virus in culture; type: cell-based, Staphylococcus aureus; conditions: drug-resistant strain, 2 × 10^5 CFU/ml, 24 h at 37° C, average of 3–4 independent experiments
From the text: as §1
as §2, with “C. […] All MIC measurements were the average of 3–4 independent experiments.” for “C.”

S. aureus CCARM 3089 = test: microbe, parasite or virus in culture; type: cell-based, Staphylococcus aureus; conditions: drug-resistant strain, 2 × 10^5 CFU/ml, 24 h at 37° C, average of 3–4 independent experiments
From the text: as §1
as §2, with “C. […] All MIC measurements were the average of 3–4 independent experiments.” for “C.”

S. aureus CCARM 3114 = test: microbe, parasite or virus in culture; type: cell-based, Staphylococcus aureus; conditions: drug-resistant strain, 2 × 10^5 CFU/ml, 24 h at 37° C, average of 3–4 independent experiments
From the text: as §1
as §2, with “C. […] All MIC measurements were the average of 3–4 independent experiments.” for “C.”

S. aureus CCARM 3108 = test: microbe, parasite or virus in culture; type: cell-based, Staphylococcus aureus; conditions: drug-resistant strain, 2 × 10^5 CFU/ml, 24 h at 37° C, average of 3–4 independent experiments
From the text: as §1
as §2, with “C. […] All MIC measurements were the average of 3–4 independent experiments.” for “C.”

[1] = tested on: S. typhimurium CCARM 8007; test: microbe, parasite or virus in culture; type: cell-based, Salmonella typhimurium; conditions: drug-resistant strain, 2 × 10^5 CFU/ml, 24 h at 37° C, average of 3–4 independent experiments, read-out: MIC
From the text: as §1
as §2, with “C. […] All MIC measurements were the average of 3–4 independent experiments.” for “C.”

[2] = tested on: S. typhimurium CCARM 8009; test: microbe, parasite or virus in culture; type: cell-based, Salmonella typhimurium; conditions: drug-resistant strain, 2 × 10^5 CFU/ml, 24 h at 37° C, average of 3–4 independent experiments, read-out: MIC
From the text: as §1
as §2, with “C. […] All MIC measurements were the average of 3–4 independent experiments.” for “C.”

[3] = tested on: S. typhimurium CCARM 8013; test: microbe, parasite or virus in culture; type: cell-based, Salmonella typhimurium; conditions: drug-resistant strain, 2 × 10^5 CFU/ml, 24 h at 37° C, average of 3–4 independent experiments, read-out: MIC
From the text: as §1
as §2, with “C. […] All MIC measurements were the average of 3–4 independent experiments.” for “C.”

E. coli CCARM 1238 = test: microbe, parasite or virus in culture; type: cell-based, Escherichia coli; conditions: drug-resistant strain, 2 × 10^5 CFU/ml, 24 h at 37° C, average of 3–4 independent experiments
From the text: as §1
as §2, with “C. […] All MIC measurements were the average of 3–4 independent experiments.” for “C.”

all 16 microbial strains = test: Mean MIC over all strains and therapeutic index; type: cell-based; conditions: MIC values in PBS from all 16 microbial strains; 400 μM used when no activity at 200 μM
Protocol: as §2

[4] = 10 mM sodium phosphate buffer, pH 7.2
[5] = PBS, pH 7.2 (number in parentheses)

Which MIC (S. aureus CCARM 3126; [4]) does the source give for CC[C@H](C)[C@H](NC(=O)CN)C(=O)NCC(=O)N[C@@H](C)C(=O)N[C@H](C(=O)N[C@@H](CC(C)C)C(=O)N[C@@H](CCCCN)C(=O)N[C@H](C(=O)N[C@@H](CC(C)C)C(=O)N[C@H](C(=O)N[C@H](C(=O)NCC(=O)N[C@@H](CC(C)C)C(=O)N1CCC[C@H]1C(=O)N[C@@H](C)C(=O)N[C@@H](CC(C)C)C(=O)N[C@H](C(=O)N[C@@H](CO)C(=O)N[C@@H](Cc1c[nH]c2ccccc12)C(=O)N[C@H](C(=O)N[C@@H](CCCCN)C(=O)N[C@@H](CCCNC(=N)N)C(=O)N[C@@H](CCCCN)C(=O)N[C@@H](CCCNC(=N)N)C(=O)N[C@@H](CCC(N)=O)C(=O)N[C@@H](CCC(N)=O)C(N)=O)[C@@H](C)CC)[C@@H](C)CC)[C@@H](C)O)[C@@H](C)O)C(C)C)C(C)C [Melittin, reference compound] here?
Its MIC is 1.56 (1.56) μM.

And the MIC (S. aureus CCARM 3126; [5])?
Its MIC is 1.56 (1.56) μM.

And the MIC (S. aureus CCARM 3090; [4])?
The MIC was 3.12 (3.12) μM.

And the MIC (S. aureus CCARM 3090; [5])?
The MIC was 3.12 (3.12) μM.

And the MIC (S. aureus CCARM 3089; [4])?
The MIC was 1.56 (1.56) μM.

And the MIC (S. aureus CCARM 3089; [5])?
The MIC was 1.56 (1.56) μM.

And the MIC (S. aureus CCARM 3114; [4])?
Its MIC is 3.12 (3.12) μM.

What about the MIC (S. aureus CCARM 3114; [5]) of the same compound?
The MIC was 3.12 (3.12) μM.

What about the MIC (S. aureus CCARM 3108; [4]) of the same compound?
Its MIC is 1.56 (1.56) μM.

What about the MIC (S. aureus CCARM 3108; [5]) of the same compound?
The MIC was 1.56 (1.56) μM.

What about the MIC [1, 4] of the same compound?
The MIC was 6.25 µM (≈ 17.8 µg/mL).

What about the MIC [1, 5] of the same compound?
Its MIC is 12.5 µM (≈ 35.6 µg/mL).

And the MIC [2, 4]?
The MIC was 6.25 µM (≈ 17.8 µg/mL).

And the MIC [2, 5]?
Its MIC is 12.5 µM (≈ 35.6 µg/mL).

What about the MIC [3, 4] of the same compound?
Its MIC is 3.12 µM (≈ 8.88 µg/mL).

What about the MIC [3, 5] of the same compound?
Its MIC is 6.25 µM (≈ 17.8 µg/mL).

And the MIC (E. coli CCARM 1238; [4])?
Its MIC is 1.56 (1.56) μM.

And the MIC (E. coli CCARM 1238; [5])?
The MIC was 1.56 (1.56) μM.

And the “GM (geometric mean of MIC values)” value (all 16 microbial strains)?
Its value is 3.6 µM.
